Experimental data published in patent US20240426776A1, “RAPID DIFFERENTIATION OF ANTIBIOTIC-SUSCEPTIBLE AND -RESISTANT BACTERIA THROUGH MEDIATED EXTRACELLULAR ELECTRON TRANSFER” (priority 2021, published 2024).
Values after ≈ are worked out from the molar mass of the structure shown. Values joined by “and” are separate entries in the source; they are usually repeats but may differ in a detail not shown here. Equal entries are not always repeated. Where two headings read alike, the source gives them in different places.

Assays:
[1] = test system: Gram-negative 1 AR55 and Gram-negative 2 AR58; assay: Standard procedure confirming blinded test (susceptibility, MIC, analysis time); format: cell-based; design: key to Standard procedure susceptibility or resistance (second symbol of cell): S: The standard procedure established susceptibility or resistance; R: The standard procedure established susceptibility or resistance
Procedure: Both Gram-positive strains were correctly classified using 2×(12 μg/mL oxacillin) in <120 min (97±45 min and 103±33 min). The Gram-negative strains were also correctly classified after increasing concentrations of imipenem from 2× to 20×(12 to 120 μg/mL imipenem). […] These phenotypic results were confirmed with results of standard procedure known to those skilled in the art and are included in Table 4 below, wherein READAS(S) susceptibility was defined by an ASIn≥0.4; (R) resistant was defined by an ASIn<0.4; analysis time shown in minutes. The standard procedure established susceptibility or resistance, MIC in μg/mL, and analysis time shown in hours.

[2] = test system: Klebsiella pneumoniae (strains 34 and 115); assay: microbe, parasite or virus in culture; settings: for MIC: Klebsiella pneumoniae, MH media, 16-18 h, 37° C.
Procedure: Testing for S. aureus susceptibility to oxacillin differed with incubation at 30° C. for 18-24 h in MH media supplemented with 2% NaCl.
Values listed in Table 2 below include the estimated minimum inhibitory concentration from this study (μg/mL), the determination of(S) sensitive or (R) resistant microbes according to CLSI criteria, and the CLSI guidelines (μg/mL) for the species being tested. Empty cells were not evaluated.

[3] = test system: Klebsiella pneumoniae (strains 34 and 115); settings: for ASIn (antibiotic susceptibility index), single replicates: imipenem 20× breakpoint (80 μg/mL), ASI20, 15 μM PMS, 0.1 OD600
Procedure: For initial quality control, cyclic voltammetry scan was recorded from 0.5 V to −0.5 V then back to 0.5 V using the potentiostat 13 configuration. The potentiostat controls the working electrode voltage relative to the reference electrode.
For antibiotic susceptibility experiments, the working electrode 6 was controlled at 0 VAg/AgCl. The current can also be measured and analyzed for determining resistance/susceptibility of pathogens to drugs (e.g., antibiotics) using other devices such as a multiplexer or any interface instrument that can receive one or more data inputs and forward it to an output for analysis and feedback. In particular, such one or more data inputs can be directed to a processor, signal processor, computer-based system, etc. and thereafter/correspondingly any such interface instrument can receive instructions from, such processing instruments as better detailed in the description for the embodiment of FIG. 14 below. It is also to be noted that any induced currents undergo a decision methodology that can be interpreted by such a configured processor, signal processor, computer-based system, etc. for aiding in the determination of antibiotic susceptibility/resistance, such as, the methodology better detailed in the description of FIG. 6 below.
Turning back to the discussion for FIG. 1B but also FIG. 1A, an initial baseline was established in the MH media, PMS, and antibiotic mixture for 50-60 min before inoculating the electrochemical cell with a bacteria cell 2. On placing the bacteria cell 2 (again see FIG. 1A) into the electrochemical cell 10, the bacteria cell 2 undergoes metabolic reactions and generates electrons 4 through metabolic processes, as was generally described above. […]
Tests disclosed in the example embodiments herein for the purpose of illustration were conducted with an inoculum of 0.1 OD600. A cell density equating to 0.1 OD600 was determined for each species by serial dilution. […] The colony forming units per mL (CFU/mL) were quantified using a drop plate method as known to those skilled in the art. […]

[4] = test system: Acinetobacter baumannii (strains 35, 78, 83, and 102); settings: cited from earlier work

Row | SMILES | MIC ([1]; Gram-negative 1 (AR55)) | Standard procedure susceptibility or resistance (second symbol of cell) ([1]; Gram-negative 1 (AR55)) | MIC ([1]; Gram-negative 2 (AR58)) | Standard procedure susceptibility or resistance (second symbol of cell) ([1]; Gram-negative 2 (AR58)) | MIC ([2]; read-out: estimated minimum inhibitory concentration from this study, strain 34) | MIC ([2]; read-out: estimated minimum inhibitory concentration from this study, strain 115) | sensitive or resistant according to CLSI criteria ([2]; strain 34) | sensitive or resistant according to CLSI criteria ([2]; strain 115) | ASIn (antibiotic susceptibility index), single replicates ([3]; strain 34 (susceptible)) | average ASI20 (±SE) ([3]; strain 115 (resistant), imipenem 20× (80 μg/mL)) | ASIn (antibiotic susceptibility index), single replicates ([3]; strain 115 (resistant)) | CLSI guidelines (resistance breakpoint) for the species [4]
1 | C[C@@H](O)[C@H]1C(=O)N2C(C(=O)O)=C(SCCN=CN)C[C@H]12 [Imipenem, imipenem] | ≥ 16 µg/mL | R/R | ≤ 0.25 µg/mL | S/S | 2 µg/mL (≈ 6.68 µM) | 64 µg/mL (≈ 214 µM) | S | R | 0.56 and 0.88 and 0.67 and 0.58 | 0.28±0.08 | 0.32 and 0.47 and 0.18 and 0.17 | –
2 | NC[C@H]1O[C@H](O[C@H]2[C@H](O)[C@@H](O[C@H]3O[C@H](CO)[C@@H](O)[C@H](N)[C@H]3O)[C@H](N)C[C@@H]2N)[C@H](N)C[C@@H]1O [Tobramycin, tobramycin] | – | – | – | – | – | – | – | – | – | – | – | 16 µg/mL
